Earlier results in patent publication US9301906B2, “Dentrifice composition” (Kao Corporation, priority 2011, dated 2016).

SMILES	solubility in 100 g of an aqueous solution at 20° C.
OC[C@@H](O)[C@@H](O[C@H]1O[C@H](CO)[C@@H](O)[C@H](O)[C@H]1O)[C@H](O)[C@@H](O)CO [maltitol]	60 g in 100 g of an aqueous solution
OC[C@@H](O)[C@H](O)[C@@H](O)CO [xylitol]	66 g in 100 g of an aqueous solution
OC[C@@H](O)[C@@H](O)CO [erythritol]	36 g in 100 g of an aqueous solution
OC[C@@H](O)[C@@H](O)[C@H](O)[C@H](O)CO [mannitol]	18 g in 100 g of an aqueous solution
OC[C@@H](O)[C@@H](O)[C@H](O)[C@@H](O)CO [sorbitol]	72 g in 100 g of an aqueous solution
